Laboratory results as given in US9260382B2, “Methods of reducing virulence in bacteria” (priority 2010, dated 2016).

Tests used:
hrpS promoter = assay: GFP reporter plasmid phrpS, flow cytometry of hrpS promoter activity; type: cell-based, Dickeya dadantii 3937; conditions: for GFP Mean Fluorescence Intensity, hrpS promoter: MM + 0.1 mM compound; for mean fluorescence intensity of GFP, hrpS promoter: 3937 (phrpS), MM + 100 μM
Method in brief: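 Wild-type Ech3937 and mutant strains carrying the phrpS GFP reporter were grown overnight in LB at 28 °C, then transferred to appropriate media with compounds. Cells were washed and resuspended in PBS to ca 10^6 CFU/ml for flow cytometry, three replicates per treatment.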

rsmB RNA = assay: qRT-PCR relative mRNA level of rsmB; type: cell-based, Dickeya dadantii 3937; conditions: for rsmB mRNA relative expression ratio (MM alone normalized to 1): Ech3937 in MM supplemented with compound
Experimental: (§1) Bacterial strains were grown in MM. Total RNA from the bacterial cells was isolated by using the TRI reagent method (Sigma, Mo.) and treated with Turbo DNA-free DNase kits (Ambion, Tex.) as described (Peng et al., 2006). An iScript cDNA Synthesis Kit (Bio-Rad, CA) was used to synthesize cDNA from 0.5 μg of treated total RNA. The Real Master Mix (Eppendorf, Westbury, N.Y.) was used for qRT-PCR reaction to quantify the cDNA level of target genes in different samples. The rplU was used as the endogenous control for data analysis. qRT-PCR data were analyzed using Relative Expression Software Tool as described (Pfaffl, M. W., Horgan, G. W., and Dempfle, L. (2002) Relative expression software tool (REST) for group-wise comparison and statistical analysis of relative expression results in real-time PCR. Nucleic Acids Res 30:e36.).

hrpA mRNA = assay: qRT-PCR relative mRNA level of hrpA; type: cell-based, Dickeya dadantii 3937; conditions: 0.1 mM in MM
Experimental: as §1

dspE mRNA = assay: qRT-PCR relative mRNA level of dspE; type: cell-based, Dickeya dadantii 3937; conditions: 0.1 mM in MM
Experimental: as §1

[1] = system: mrp promoter (reference gene); assay: GFP reporter plasmid pmrp, flow cytometry (reference gene); type: cell-based, Dickeya dadantii 3937; conditions: for mean fluorescence intensity of GFP, mrp promoter: 3937 (pmrp), MM + 100 μM
Experimental: FACS analysis of promoter activity of dspE, hrpA, hrpL, hrpN, and hrpS was carried out as described (Peng et al., 2006). Briefly, the wild-type Ech3937 and the mutant strains carrying the promoter reporter plasmid were grown on LB broth at 28° C. overnight and transferred to appropriate media. For FACS analysis, samples were collected by centrifugation, washed with 1× phosphate buffer saline (PBS) at 13,000 rpm for 1 min, and re-suspended in 1×PBS to ca 10^6 CFU/ml prior to being run in a FACS Calibur flow cytometer (BD Biosciences, CA). Three replicates were performed for each treatment.
Since OCA and TCA induced the expression of hrpN, the effect of these two phenolic compounds on the expression of hrpA, hrpL, and hrpS was investigated further. […] GFP intensity was determined on gated populations of bacterial cells by flow cytometry and analyzed with the Cell Quest software (BD Biosciences, San Jose, Calif.). The lines labeled “1” stand for the GFP expression control base level of the Ech3937 containing pPROBE-AT vector; lines labeled “2” stand for the promoter activity of hrpS, hrpL, hrpA and hrpN in Ech3937 in MM; lines labeled “3” stand for the promoter activity of Ech3937 in MM supplemented with 0.1 mM OCA; lines labeled “4” stand for the promoter activity of hrpL mutant WPP96 in MM; lines labeled “5” stand for the promoter activity of hrpL mutant WPP96 in MM supplemented with 0.1 mM OCA. Values are representative of at least two experiments. […] Compared with MM alone, the average GFP fluorescence intensity of bacterial cells of Ech3937 (phrpA) was doubled when 0.1 mM of OCA and TCA were added to the medium (Table 4; FIG. 3). […] The mrp, whose protein product has an ATPase conserved domain (2e-06), was used as a reference gene in this study.

exoS promoter (T3SS) = assay: exoS promoter-gfp reporter pATexoS, flow cytometry; type: cell-based, P. aeruginosa PA01; conditions: for Actual readings of flow cytometry (exoS expression): 6 h, LB with 200 mM NaCl, 10 mM NTA; for Fraction of untreated control (exoS expression): structure-activity table, concentration not given
Experimental: To identify T3SS inhibitors of PA01, a promoter-probe vector pPROBE-AT containing the promoterless green fluorescent protein (gfp) gene was used to construct an exoS promoter-gfp plasmid reporter, pATexoS. PA01 containing pATexoS was cultured in T3SS-inducing medium containing dimethyl sulfoxide (DMSO; solvent of chemical compounds), or supplemented with 250 μM of each compound, and promoter activity was assessed at 6 h by measuring GFP intensity using flow cytometry. 101 compounds (58 synthesized and 43 commercially available) were screened. Compounds 027, 032, 101, and 149 repressed exoS expression at the final concentration of 250 μM by at least one standard deviation below the sample average (Z score≦−1) (FIG. 37 A-E). Z score (or standard score) indicates how many standard deviations an observation or datum is above or below the mean [z=(x−μ)/σ, where x is a raw score to be standardized, μ is the mean of the population, and σ is the standard deviation of the population].
To determine the effective concentration of compounds, the dose-dependent effect of potential inhibitors on exoS expression and bacterial growth were tested. P. aeruginosa cells carrying pATexoS were pre-cultured in LB supplemented with 200 mM NaCl and transferred to fresh LB with 200 mM NaCl, 10 mM NTA, and various concentrations of compounds (20, 50, 100, and 250 μM) or DMSO for 6 h. […] At 50 μM dosage, both 027 and 101 inhibited exoS expression at similar levels, and this inhibitory effect increased as compound concentration increased (FIG. 38A and Table 17). […] These inhibitions/inductions of exoS expression are caused by the shifting bacterial population between low-state expression cells and high-state expression cells (FIG. 40).

HrpN protein = HrpN protein expression (FIG. 15); type: cell-based, Dickeya dadantii 3937; conditions: MM supplemented with 0.1 mM (FIG. 15)
From the text: To further elucidate whether T3SS gene expression is mainly regulated through the HrpX/Y-HrpS-HrpL regulatory pathway, the expression of hrpA and hrpN in wild-type Ech3937 and hrpX (WPP67), hrpY (WPP92), hrpS (WPP90), and hrpL (WPP96) mutants in MM were examined. […] Similar expression of hrpA and hrpN was observed among WPP67, WPP92, WPP90 and WPP96 carrying phrpA and phrpN grown in MM and MM supplemented with PCA. […] Since PCA represses the expression of several T3SS genes such as hrpN, the effect of PCA on protein production of HrpN was further examined.

hrpN mRNA = assay: qRT-PCR relative mRNA level of hrpN; type: cell-based, Dickeya dadantii 3937; conditions: 0.1 mM in MM
Experimental: as §1

[2] = hrpL mutant WPP96 (phrpS), 12 h

Structure (SMILES)	GFP Mean Fluorescence Intensity, hrpS promoter (hrpS promoter; Ech3937 (phrpS), 12 h)	GFP Mean Fluorescence Intensity, hrpS promoter (hrpS promoter; [2])	rsmB mRNA relative expression ratio (MM alone normalized to 1) (rsmB RNA)	hrpA mRNA compared with MM alone, in words (hrpA mRNA)	dspE mRNA compared with MM alone, in words (dspE mRNA)	GFP Mean Fluorescence Intensity, mrp promoter (reference gene) ([1]; Ech3937 (pmrp), MM + 0.1 mM compound, 12 h)	mean fluorescence intensity of GFP, hrpS promoter (hrpS promoter; 12 h)	mean fluorescence intensity of GFP, hrpS promoter (hrpS promoter; 24 h)	inhibitory effect on T3SS hrpS expression, in words (hrpS promoter; reporter plasmid phrpS)	mean fluorescence intensity of GFP, mrp promoter ([1]; 12 h)	mean fluorescence intensity of GFP, mrp promoter ([1]; 24 h)	Actual readings of flow cytometry (exoS expression) (exoS promoter (T3SS); 20 uM)	Actual readings of flow cytometry (exoS expression) (exoS promoter (T3SS); 50 uM)	Actual readings of flow cytometry (exoS expression) (exoS promoter (T3SS); 100 uM)	Actual readings of flow cytometry (exoS expression) (exoS promoter (T3SS); 250 uM)	Fraction of untreated control (exoS expression) (exoS promoter (T3SS))	HrpN protein amount compared with MM alone, in words (HrpN protein)	rsmB mRNA compared with MM alone, in words (rsmB RNA; 0.1 mM in MM)	effect on exoS promoter activity, in words (exoS promoter (T3SS); screening for T3SS inhibitors)	hrpN mRNA compared with MM alone, in words (hrpN mRNA)
O=C(O)/C=C/c1ccccc1O [Compound 006, Ortho-coumaric acid]	56 ± 1	350 ± 17	1.4	significantly higher amount	significantly higher amount															
O=C(O)/C=C/c1ccccc1 [Compound 001, trans-cinnamic acid]	54 ± 2	360 ± 16	1.58			105 ± 0.3														
O=C(/C=C/c1ccc(O)cc1)NO [Compound 103, trans-4-Hydroxycinnamohydroxamic acid]							27.7 ± 1.5	26.4 ± 0.6	inhibited hrpS	81.2 ± 0.7	67.7 ± 2.5	179.07 ± 2.98	237.31 ± 4.94	279.16 ± 2.72	328.30 ± 3.24	2.04 ± 0.13				
O=C(O)/C=C/c1ccc(O)cc1 [Compound 004, para-coumaric acid]				significantly lower amount of mRNA	significantly lower amount of mRNA							119.08 ± 1.82	127.05 ± 4.43	118.16 ± 2.73	117.74 ± 5.09	0.94 ± 0.05	a lower amount of HrpN	No significant difference	little or no effect on exoS promoter activity	significantly lower amount of mRNA
